Literature values as cited in patent US12076400B2, “Methods of using a bispecific antigen-binding construct targeting HER2 in combination with CDK4/6 inhibitors for the treatment of breast cancer” (c/o Zymeworks BC Inc., priority 2019, dated 2024).

Test system: estrogen receptor (ER)-positive breast cancer cell lines
Settings: by blocking progression from G1 into S phase

Question: With `CC(=O)c1c(C)c2cnc(Nc3ccc(N4CCNCC4)cn3)nc2n(C2CCCC2)c1=O` [palbociclib, Palbociclib] as the compound, how does the “Cellular proliferation in vitro” value read?
Answer: reduced cellular proliferation
